Measurements reported in US7312322B1, “Genetic sequences encoding steroid and juvenile hormone receptor polypeptides and insecticidal modalities therefor” (priority 1998, dated 2007).
“And” between values parts separate entries of the source, which are not always exact repeats. Identical values can stand only once.

Assays:
[1] = biological target: T1, EcR polypeptide subunit of the D. melanogaster ecdysone receptor (Drosophila melanogaster, UniProt P34021); assay: CHO cell co-transfection CAT reporter assay, pSV40-EcR with p(EcRE)7-CAT; format: cell-based; conditions: for Fold-induction of expression: 30° C., PNA 20 μM, CHO cells
T1 construct: expressed in transfected cells; host or cells: CHO cells
T1 sequence (P34021 1-878): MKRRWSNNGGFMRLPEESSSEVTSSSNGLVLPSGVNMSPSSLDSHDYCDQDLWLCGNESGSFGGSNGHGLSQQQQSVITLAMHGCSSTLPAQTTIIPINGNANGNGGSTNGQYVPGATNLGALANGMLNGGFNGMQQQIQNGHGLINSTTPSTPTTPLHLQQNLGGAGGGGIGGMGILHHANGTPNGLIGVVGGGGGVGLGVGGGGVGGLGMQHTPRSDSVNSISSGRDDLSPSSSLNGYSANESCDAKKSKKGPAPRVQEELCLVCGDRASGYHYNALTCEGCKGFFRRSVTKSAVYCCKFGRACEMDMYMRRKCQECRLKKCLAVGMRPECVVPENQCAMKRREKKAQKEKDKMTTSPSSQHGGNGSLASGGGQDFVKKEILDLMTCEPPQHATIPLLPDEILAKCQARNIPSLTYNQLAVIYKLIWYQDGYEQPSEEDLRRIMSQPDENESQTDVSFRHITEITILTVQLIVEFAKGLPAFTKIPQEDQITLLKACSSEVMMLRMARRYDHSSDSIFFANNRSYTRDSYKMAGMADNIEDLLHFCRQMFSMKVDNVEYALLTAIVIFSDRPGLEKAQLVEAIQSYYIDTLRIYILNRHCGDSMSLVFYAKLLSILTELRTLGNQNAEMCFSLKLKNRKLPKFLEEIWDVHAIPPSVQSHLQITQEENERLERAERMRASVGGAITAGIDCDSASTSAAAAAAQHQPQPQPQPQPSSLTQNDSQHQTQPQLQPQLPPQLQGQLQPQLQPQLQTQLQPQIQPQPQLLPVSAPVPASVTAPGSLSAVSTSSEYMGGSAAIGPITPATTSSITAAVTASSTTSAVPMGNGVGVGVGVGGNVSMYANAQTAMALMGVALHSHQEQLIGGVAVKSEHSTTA
Procedure: Chinese hamster ovary (CHO) cells were maintained in 50% (v/v) Dubbecco's modified Eagle's medium (DMEM) and 50% (v/v) Hamm F12 nutrient mixture (GIBCO) supplemented with 10% (v/v) foetal bovine serum. Transfection was carried out by the DNA-calcium phosphate co-precipitation method (Ausubel et al, 1992). One day before transfection with the plasmids described in Examples 1 and/or 2, or other expression plasmids, CHO cells were plated out at 5-8×10^5 cells per 6 cm diameter culture dish in the above DMEM/F12 medium. Three hours before the addition of the DNA-calcium phosphate co-precipitate, the cells were washed with phosphate buffered saline (PBS; Sambrook et al., 1989) and cultured in fresh DMEM plus 10% (v/v) foetal bovine serum. The cells were incubated in the presence of the co-precipitate for eighteen hours before excess DNA was removed by washing with PBS. The cells were then cultured for another day in DMEM/F12 supplemented with 10% (v/v) foetal bovine serum with or without added ponasterone A (PNA), before harvesting. Cells were washed with PBS, harvested by mechanical scraping in 0.25 M Tris-HCl (pH 7.8), and disrupted by three freeze-thaw cycles.
All transfections included, in addition to expression and reporter plasmids, a β-galactosidase-expressing plasmid designated pPgK-LacZ (McBurney et al, 1991), which served as an internal control for the efficiency of transfection, and pUC18 DNA in an amount sufficient to produce 10 μg total DNA per culture dish.
The chloramphenicol acetyltransferase (CAT) and β-galactosidase activities encoded by the reporter genes present in the reporter plasmids were assayed as described in Sambrook et al, (1989).
To determine whether the D. melanogaster ecdysone receptor polypeptide is stable at physiological temperatures above about 30° C., CHO cells were transfected as described in Example 3, with the plasmid pSV40-EcR and the reporter plasmid p(EcRE)7-CAT in the presence of PNA, at 30° C. and 37° C.
Briefly, CHO cells were plated out at 37° C. sixteen to twenty hours before transfection. After washing away the DNA, the cells were cultured for two hours in fresh medium with or without hormone and the dishes divided into duplicate sets. One set was cultured for another day at 37° C. before harvesting for CAT and β-galactosidase assays. The other set was cultured for three days at 30° C. before assaying enzyme activities. Results indicated a reduction in the fold-induction of gene expression regulated by the D. melanogaster ecdysone receptor polypeptide at 37° C., compared to the fold-induction at 30° C., as shown in Table 1.

[2] = biological target: T2, linker and ligand-binding regions of the L. cuprina EcR polypeptide and partner protein (USP polypeptide) (Lucilia cuprina, UniProt O18531); assay: [3H]ponasterone A binding assay in Sf9 and Sf21 cells infected by recombinant baculovirus (modified method of Yund et al); conditions: compared to the ecdysone holoreceptor in L. cuprina embryos; no specific binding with control virus (FIG. 3)
T2 construct: made in house; host or cells: recombinant baculovirus in insect Sf9 and Sf21 cells (extracts)
T2 sequence (O18531 366-757): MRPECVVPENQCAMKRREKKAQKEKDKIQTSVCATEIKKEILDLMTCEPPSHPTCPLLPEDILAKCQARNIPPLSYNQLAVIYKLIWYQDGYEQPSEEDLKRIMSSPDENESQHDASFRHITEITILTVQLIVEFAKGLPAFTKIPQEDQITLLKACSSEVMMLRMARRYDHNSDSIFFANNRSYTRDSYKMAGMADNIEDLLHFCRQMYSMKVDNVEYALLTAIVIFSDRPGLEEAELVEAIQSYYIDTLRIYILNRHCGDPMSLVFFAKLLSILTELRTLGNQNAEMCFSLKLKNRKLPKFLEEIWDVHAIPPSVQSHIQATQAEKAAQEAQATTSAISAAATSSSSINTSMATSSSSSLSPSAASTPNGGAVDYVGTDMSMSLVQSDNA
Text: Control cells contained baculovirus expressing β-galactosidase and CAT only.
The segment of pLcEcR.USP.DUAL which encodes the tagged linker and ligand-binding regions of the EcR polypeptide and partner protein (USP polypeptide) sequences, placed operably under the control of polyhedrin and p10 promoters, respectively, was recombined into a baculovirus genome, by employing the Tn7 transposition system (Luckow et al, (1993). The polypeptide products were then co-expressed in insect Sf21 and Sf9 cells, where they associated into a functional complex.

CC(C)CC[C@@H](O)[C@](C)(O)[C@H]1CC[C@@]2(O)C3=CC(=O)[C@@H]4C[C@@H](O)[C@@H](O)C[C@]4(C)[C@H]3CC[C@]12C [PNA, ponasterone A]
Fold-induction of expression ([1]; pSV40-EcR 0.1 μg/dish): 39X and 25X | Fold-induction of expression ([1]; pSV40-EcR 0.5 μg/dish): 26X and 33X | Fold-induction of expression ([1]; pSV40-EcR 2.5 μg/dish): 35X and 54X | induction of CAT activity ([1]; CHO cells co-transfected with p(EcRE)7-CAT and pSV40-EcR, in the presence of PNA): 50 units of activity | binding of labelled ligand in cells infected by the recombinant baculovirus [2]: highly-significant increase in the binding
